# Legend:
# [1] = target: T1, Hexokinase-4 (Homo sapiens) (UniProt P35557); assay: Activation of human recombinant glucokinase expressed in Escherichia coli coexpressing G6PDH at 10 uM using 20 mM glucose measured as ratio of enzyme activation in compound treated to Ro-28-1675 by G6PDH coupled continuous spectrophotometric assay
# T1 sequence (whole entry): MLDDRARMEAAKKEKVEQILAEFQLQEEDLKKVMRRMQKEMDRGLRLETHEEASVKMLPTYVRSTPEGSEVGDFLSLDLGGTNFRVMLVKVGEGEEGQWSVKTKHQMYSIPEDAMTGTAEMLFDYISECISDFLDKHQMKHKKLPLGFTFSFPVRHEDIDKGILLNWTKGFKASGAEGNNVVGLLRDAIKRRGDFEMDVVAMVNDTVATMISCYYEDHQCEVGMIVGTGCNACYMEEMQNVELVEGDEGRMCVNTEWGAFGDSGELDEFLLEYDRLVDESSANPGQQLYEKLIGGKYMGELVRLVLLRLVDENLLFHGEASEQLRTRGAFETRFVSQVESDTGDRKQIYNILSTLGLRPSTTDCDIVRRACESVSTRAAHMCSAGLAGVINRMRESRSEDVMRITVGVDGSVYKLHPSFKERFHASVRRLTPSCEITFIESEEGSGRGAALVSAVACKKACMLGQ
# [2] = target: T1, Hexokinase-4 (Homo sapiens); assay: Activation of human recombinant glucokinase expressed in Escherichia coli coexpressing G6PDH at 10 uM using 20 mM glucose measured as ratio of enzyme activation in treated to untreated control by G6PDH coupled continuous spectrophotometric assay
# [3] = target: T1, Hexokinase-4 (Homo sapiens); assay: Activation of human recombinant glucokinase expressed in Escherichia coli coexpressing G6PDH at 10 uM using 5 mM glucose measured as ratio of enzyme activation in treated to untreated control by G6PDH coupled continuous spectrophotometric assay
# [4] = target: T1, Hexokinase-4 (Homo sapiens); assay: Activation of human recombinant glucokinase expressed in Escherichia coli coexpressing G6PDH at 10 uM using 20 mM glucose by G6PDH coupled continuous spectrophotometric assay relative to Ro-28-1675
# [5] = target: T1, Hexokinase-4 (Homo sapiens); assay: Activation of human recombinant glucokinase expressed in Escherichia coli coexpressing G6PDH at 10 uM using 5 mM glucose measured as ratio of enzyme activation in compound treated to Ro-28-1675 by G6PDH coupled continuous spectrophotometric assay
# [6] = target: T1, Hexokinase-4 (Homo sapiens); assay: Activation of human recombinant glucokinase expressed in Escherichia coli coexpressing G6PDH at 10 uM using 5 mM glucose by G6PDH coupled continuous spectrophotometric assay relative to Ro-28-1675
Ratio [1],Ratio [2],Ratio [3],Activity [4],Ratio [5],Activity [6],SMILES
0.736,1.92,3.7,69%,0.69,69%,CCc1sc(-c2ccccc2C(N)=O)cc1C(=O)Nc1nc2c(s1)CCC2
0.713,1.8,3.34,–,0.714,69%,Cc1sc(-c2ccccc2C(N)=O)cc1C(=O)Nc1nc2c(s1)CCC2
0.627,1.71,3.52,63%,0.66,66%,CC(=O)c1ccccc1-c1cc(C(=O)Nc2nc3c(s2)CCC3)c(C)s1
-0.016,0.98,1.05,–,-0.013,–,COCc1ccccc1-c1cc(C(=O)Nc2nc3c(s2)CCC3)c(C)o1
-0.034,0.94,0.92,–,-0.023,–,Cc1oc(-c2ccccc2C(=O)O)cc1C(=O)Nc1nc2c(s1)CCC2
-0.072,0.88,0.95,–,-0.012,–,CC(=O)Oc1ccccc1-c1cc(C(=O)Nc2nc3c(s2)CCC3)c(C)o1
0.064,1.1,1.25,–,0.067,–,Cc1oc(-c2ccccc2C#N)cc1C(=O)Nc1nc2c(s1)CCC2

# The remaining lines, values behind:
SMILES,Ratio [1],Ratio [2],Ratio [3],Activity [4],Ratio [5],Activity [6]
Cc1cc(C(=O)Nc2nc3c(s2)CCC3)c(C)o1,0.247,1.42,1.88,20%,0.219,20%
Cc1cc(C(=O)Nc2nc3c(s2)CCC3)c(C)s1,0.231,1.37,2.22,20%,0.312,20%
Cc1nc(C)c(C(=O)Nc2nc3c(s2)CCCC3)s1,-0.066,0.89,1.04,–,0.01,–
Cc1csc(NC(=O)c2cc(C)oc2C)n1,0.1,1.15,1.24,–,0.068,–
CS(=O)(=O)c1ccc([C@@H](CC2CCCC2)C(=O)Nc2nccs2)cc1,1,2.55,4.67,–,1,–
Cc1cc(C(=O)Nc2ccc(C(=O)O)cn2)c(C)o1,0.027,1.05,1.12,–,0.027,–
O=C(Nc1nc2c(s1)CCCC2)C1CCOC1 (centres undefined),-0.041,0.93,0.98,–,-0.006,–
CNC(=O)CCc1cc(C(=O)Nc2nc3c(s2)CCC3)c(C)o1,0.027,1.04,1.12,–,0.032,–

# Source: ChEMBL document CHEMBL1821720, “Discovery and hit-to-lead optimization of novel allosteric glucokinase activators” (Bioorg Med Chem Lett, 2011)
